The source of these data is ChEMBL document CHEMBL4507267 (2021).

Experiment [1] concerns the target Delta-type opioid receptor (Homo sapiens) (UniProt P41143). The settings on record: Compound concentration 10.0 uM.
Experiment [2] addresses Proto-oncogene tyrosine-protein kinase ROS (Homo sapiens) (UniProt P08922). As to conditions: Compound concentration 1000.0 nM; call rule not given here.
Experiment [3] has as its target Tyrosine-protein kinase Yes (Homo sapiens) (UniProt P07947). As to conditions: Compound concentration 1000.0 nM.
In experiment [4] the target is D(1A) dopamine receptor (Homo sapiens) (UniProt P21728). As to conditions: Compound concentration 10.0 uM.
In experiment [5] the target is Solute carrier family 2, facilitated glucose transporter member 2 (Homo sapiens, UniProt P11168). Kind of experiment: Cell-based assay with CellTiter-Glo readout for ATP production with SLC2A2.
Experiment [6] concerns the target Peripheral plasma membrane protein CASK (Homo sapiens) (UniProt O14936). As to conditions: Compound concentration 1000.0 nM.
The target of experiment [7] is Dual specificity mitogen-activated protein kinase kinase 4 (Homo sapiens) (UniProt P45985). As to conditions: Compound concentration 1000.0 nM.
The target in experiment [8] is Serine/threonine-protein kinase MARK1 (Homo sapiens) (UniProt Q9P0L2). The settings on record: Compound concentration 1000.0 nM.
For experiment [9], the target named is Phosphatidylinositol 4-kinase beta (Homo sapiens) (UniProt Q9UBF8). The settings on record: Compound concentration 1000.0 nM.
The target of experiment [10] is RAC-beta serine/threonine-protein kinase (Homo sapiens) (UniProt P31751). The settings on record: Compound concentration 1000.0 nM.
Experiment [11] concerns the target Ribosomal protein S6 kinase alpha-6 (Homo sapiens) (UniProt Q9UK32). As to conditions: Compound concentration 1000.0 nM.
The target in experiment [12] is T1, Histamine H1 receptor (Homo sapiens, UniProt P35367). The settings on record: Compound concentration 10.0 uM.
The target of experiment [13] is Sigma intracellular receptor 2 (Homo sapiens) (UniProt Q5BJF2). As to conditions: Compound concentration 10.0 uM.
Experiment [14] has as its target Serine/threonine-protein kinase RIO2 (Homo sapiens) (UniProt Q9BVS4). The settings on record: Compound concentration 1000.0 nM.
Experiment [15] has as its target Serine/threonine-protein kinase WNK1 (Homo sapiens) (UniProt Q9H4A3). As to conditions: Compound concentration 1000.0 nM.
In experiment [16] the target is Serine/threonine-protein kinase TAO1 (Homo sapiens) (UniProt Q7L7X3). The settings on record: Compound concentration 1000.0 nM.
In experiment [17] the target is Sodium-dependent noradrenaline transporter (Homo sapiens) (UniProt P23975). The settings on record: Compound concentration 10.0 uM.
The species named for the next experiment is Rattus norvegicus. As to conditions: Compound concentration 10.0 uM.
Experiment [18] deals with 5-hydroxytryptamine receptor 7 (Homo sapiens) (UniProt P34969). As to conditions: Compound concentration 10.0 uM.
Experiment [19] concerns the target T1, Histamine H1 receptor. Description: GPCRScan assay: inhibition of H1. On the set-up: radioligand conc. used [nm] 0.6 – 2.0, parental cells stable HEK.
Experiment [20] concerns the target Solute carrier family 2, facilitated glucose transporter member 4 (Homo sapiens, UniProt P14672). Kind of experiment: Cell-based assay with CellTiter-Glo readout for ATP production with SLC2A4.
The next experiment deals with Histamine H2 receptor (Homo sapiens, UniProt P25021). Description: GPCRScan assay: inhibition of H2. On the set-up: radioligand conc. used [nm] 0.02 – 0.05, parental cells Stable HEK.

The structures appear in SMILES notation.

Proto-oncogene tyrosine-protein kinase ROS (Homo sapiens), sequence (P08922 whole entry): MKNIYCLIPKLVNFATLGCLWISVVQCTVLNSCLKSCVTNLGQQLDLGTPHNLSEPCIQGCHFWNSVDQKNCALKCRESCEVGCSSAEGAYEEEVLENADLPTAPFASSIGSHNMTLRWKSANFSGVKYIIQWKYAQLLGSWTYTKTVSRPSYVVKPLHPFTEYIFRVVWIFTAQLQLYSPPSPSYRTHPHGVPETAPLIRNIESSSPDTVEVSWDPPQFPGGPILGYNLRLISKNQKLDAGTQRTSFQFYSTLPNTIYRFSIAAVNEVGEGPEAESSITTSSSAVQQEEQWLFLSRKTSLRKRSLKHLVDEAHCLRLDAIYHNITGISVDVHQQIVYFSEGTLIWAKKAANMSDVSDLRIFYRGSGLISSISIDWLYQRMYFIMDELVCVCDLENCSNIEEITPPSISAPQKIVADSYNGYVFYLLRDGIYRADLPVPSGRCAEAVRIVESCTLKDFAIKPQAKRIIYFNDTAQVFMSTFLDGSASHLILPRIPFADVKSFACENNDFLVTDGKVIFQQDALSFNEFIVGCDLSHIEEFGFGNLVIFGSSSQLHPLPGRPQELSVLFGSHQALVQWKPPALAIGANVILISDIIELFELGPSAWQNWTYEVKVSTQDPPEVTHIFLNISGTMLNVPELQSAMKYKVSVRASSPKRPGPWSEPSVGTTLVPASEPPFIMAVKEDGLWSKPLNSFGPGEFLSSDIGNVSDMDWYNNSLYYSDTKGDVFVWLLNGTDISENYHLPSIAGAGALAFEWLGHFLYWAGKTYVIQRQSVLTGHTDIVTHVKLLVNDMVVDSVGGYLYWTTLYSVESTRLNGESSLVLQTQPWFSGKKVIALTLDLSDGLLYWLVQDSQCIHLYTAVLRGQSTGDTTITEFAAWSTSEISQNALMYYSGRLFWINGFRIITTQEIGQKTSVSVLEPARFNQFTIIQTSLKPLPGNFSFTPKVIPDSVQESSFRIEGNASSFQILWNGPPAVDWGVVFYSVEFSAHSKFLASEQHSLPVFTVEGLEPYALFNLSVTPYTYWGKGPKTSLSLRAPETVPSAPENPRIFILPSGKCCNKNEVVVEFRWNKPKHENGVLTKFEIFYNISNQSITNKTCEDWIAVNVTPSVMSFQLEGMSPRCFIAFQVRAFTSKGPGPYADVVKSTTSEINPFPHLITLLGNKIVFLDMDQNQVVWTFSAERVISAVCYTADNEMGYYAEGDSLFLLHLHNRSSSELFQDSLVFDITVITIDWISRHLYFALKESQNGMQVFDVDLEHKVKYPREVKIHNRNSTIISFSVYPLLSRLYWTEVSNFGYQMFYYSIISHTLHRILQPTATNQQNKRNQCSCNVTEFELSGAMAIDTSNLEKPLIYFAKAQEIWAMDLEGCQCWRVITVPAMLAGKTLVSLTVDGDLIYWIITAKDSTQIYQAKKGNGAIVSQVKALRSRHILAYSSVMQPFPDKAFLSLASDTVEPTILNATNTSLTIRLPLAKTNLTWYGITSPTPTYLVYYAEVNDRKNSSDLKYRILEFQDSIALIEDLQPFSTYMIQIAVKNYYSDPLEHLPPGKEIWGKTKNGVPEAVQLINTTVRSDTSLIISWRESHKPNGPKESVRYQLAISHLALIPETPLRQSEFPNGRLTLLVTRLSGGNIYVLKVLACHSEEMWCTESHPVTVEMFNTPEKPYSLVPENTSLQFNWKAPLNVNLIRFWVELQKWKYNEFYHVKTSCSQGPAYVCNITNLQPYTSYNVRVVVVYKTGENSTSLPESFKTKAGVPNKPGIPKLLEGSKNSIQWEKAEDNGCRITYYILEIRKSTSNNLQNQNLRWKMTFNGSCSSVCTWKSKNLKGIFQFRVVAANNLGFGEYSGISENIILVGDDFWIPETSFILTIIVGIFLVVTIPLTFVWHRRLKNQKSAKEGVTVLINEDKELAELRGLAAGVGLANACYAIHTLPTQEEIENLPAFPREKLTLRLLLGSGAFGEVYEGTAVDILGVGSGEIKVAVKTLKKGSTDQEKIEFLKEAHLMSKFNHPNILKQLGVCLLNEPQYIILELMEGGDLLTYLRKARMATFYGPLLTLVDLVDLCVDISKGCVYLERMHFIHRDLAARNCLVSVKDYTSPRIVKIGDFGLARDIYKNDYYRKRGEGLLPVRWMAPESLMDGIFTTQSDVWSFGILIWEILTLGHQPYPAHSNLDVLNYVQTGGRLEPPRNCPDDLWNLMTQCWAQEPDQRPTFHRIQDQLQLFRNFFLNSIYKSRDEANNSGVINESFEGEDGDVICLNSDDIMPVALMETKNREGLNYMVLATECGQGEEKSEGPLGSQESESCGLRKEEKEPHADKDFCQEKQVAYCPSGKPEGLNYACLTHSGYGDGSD
Serine/threonine-protein kinase TAO1 (Homo sapiens), sequence (Q7L7X3 whole entry): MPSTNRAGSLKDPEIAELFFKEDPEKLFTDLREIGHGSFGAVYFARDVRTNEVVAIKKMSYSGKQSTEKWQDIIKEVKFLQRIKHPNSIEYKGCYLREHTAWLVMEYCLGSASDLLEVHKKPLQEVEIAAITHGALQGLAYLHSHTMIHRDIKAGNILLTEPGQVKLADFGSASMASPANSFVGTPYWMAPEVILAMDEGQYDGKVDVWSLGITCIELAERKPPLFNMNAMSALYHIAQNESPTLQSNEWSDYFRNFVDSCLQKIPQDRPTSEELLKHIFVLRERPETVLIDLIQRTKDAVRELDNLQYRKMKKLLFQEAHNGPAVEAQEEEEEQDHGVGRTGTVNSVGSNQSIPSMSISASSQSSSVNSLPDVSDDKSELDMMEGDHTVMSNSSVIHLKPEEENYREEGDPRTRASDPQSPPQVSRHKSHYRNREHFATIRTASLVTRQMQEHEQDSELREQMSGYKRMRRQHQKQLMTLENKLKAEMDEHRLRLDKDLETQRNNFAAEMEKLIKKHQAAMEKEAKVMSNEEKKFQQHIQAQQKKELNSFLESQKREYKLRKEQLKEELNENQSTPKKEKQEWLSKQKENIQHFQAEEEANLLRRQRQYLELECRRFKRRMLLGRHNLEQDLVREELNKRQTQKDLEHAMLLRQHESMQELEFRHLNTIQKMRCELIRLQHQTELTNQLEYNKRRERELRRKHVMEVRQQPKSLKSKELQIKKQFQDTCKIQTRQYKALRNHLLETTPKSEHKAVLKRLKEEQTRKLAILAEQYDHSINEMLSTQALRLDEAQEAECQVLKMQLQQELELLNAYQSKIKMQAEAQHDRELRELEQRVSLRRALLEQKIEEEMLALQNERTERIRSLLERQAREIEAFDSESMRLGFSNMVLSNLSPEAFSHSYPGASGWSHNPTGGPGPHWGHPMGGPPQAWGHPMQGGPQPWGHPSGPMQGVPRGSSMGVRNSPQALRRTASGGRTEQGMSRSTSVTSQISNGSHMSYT
Serine/threonine-protein kinase MARK1 (Homo sapiens), sequence (Q9P0L2 whole entry, looked up): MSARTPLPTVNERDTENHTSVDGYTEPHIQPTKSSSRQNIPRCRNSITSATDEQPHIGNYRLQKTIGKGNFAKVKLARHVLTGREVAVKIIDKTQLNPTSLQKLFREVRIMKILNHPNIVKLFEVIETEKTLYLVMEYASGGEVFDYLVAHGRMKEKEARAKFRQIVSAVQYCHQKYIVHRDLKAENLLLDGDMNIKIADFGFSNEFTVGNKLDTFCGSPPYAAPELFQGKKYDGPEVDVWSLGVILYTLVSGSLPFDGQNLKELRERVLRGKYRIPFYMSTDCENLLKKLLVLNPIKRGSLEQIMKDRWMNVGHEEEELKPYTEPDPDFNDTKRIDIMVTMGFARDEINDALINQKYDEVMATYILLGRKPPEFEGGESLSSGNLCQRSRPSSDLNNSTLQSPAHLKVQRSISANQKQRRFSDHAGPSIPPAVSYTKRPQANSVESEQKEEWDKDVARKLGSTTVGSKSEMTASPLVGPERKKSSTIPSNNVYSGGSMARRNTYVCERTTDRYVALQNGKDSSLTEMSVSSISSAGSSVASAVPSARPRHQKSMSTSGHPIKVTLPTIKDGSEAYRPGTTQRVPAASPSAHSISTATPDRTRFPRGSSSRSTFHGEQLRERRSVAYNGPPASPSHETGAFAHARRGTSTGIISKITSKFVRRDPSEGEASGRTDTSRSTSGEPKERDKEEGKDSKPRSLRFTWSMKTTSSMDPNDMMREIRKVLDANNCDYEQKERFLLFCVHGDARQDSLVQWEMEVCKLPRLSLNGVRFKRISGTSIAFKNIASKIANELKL
Peripheral plasma membrane protein CASK (Homo sapiens), sequence (O14936 whole entry): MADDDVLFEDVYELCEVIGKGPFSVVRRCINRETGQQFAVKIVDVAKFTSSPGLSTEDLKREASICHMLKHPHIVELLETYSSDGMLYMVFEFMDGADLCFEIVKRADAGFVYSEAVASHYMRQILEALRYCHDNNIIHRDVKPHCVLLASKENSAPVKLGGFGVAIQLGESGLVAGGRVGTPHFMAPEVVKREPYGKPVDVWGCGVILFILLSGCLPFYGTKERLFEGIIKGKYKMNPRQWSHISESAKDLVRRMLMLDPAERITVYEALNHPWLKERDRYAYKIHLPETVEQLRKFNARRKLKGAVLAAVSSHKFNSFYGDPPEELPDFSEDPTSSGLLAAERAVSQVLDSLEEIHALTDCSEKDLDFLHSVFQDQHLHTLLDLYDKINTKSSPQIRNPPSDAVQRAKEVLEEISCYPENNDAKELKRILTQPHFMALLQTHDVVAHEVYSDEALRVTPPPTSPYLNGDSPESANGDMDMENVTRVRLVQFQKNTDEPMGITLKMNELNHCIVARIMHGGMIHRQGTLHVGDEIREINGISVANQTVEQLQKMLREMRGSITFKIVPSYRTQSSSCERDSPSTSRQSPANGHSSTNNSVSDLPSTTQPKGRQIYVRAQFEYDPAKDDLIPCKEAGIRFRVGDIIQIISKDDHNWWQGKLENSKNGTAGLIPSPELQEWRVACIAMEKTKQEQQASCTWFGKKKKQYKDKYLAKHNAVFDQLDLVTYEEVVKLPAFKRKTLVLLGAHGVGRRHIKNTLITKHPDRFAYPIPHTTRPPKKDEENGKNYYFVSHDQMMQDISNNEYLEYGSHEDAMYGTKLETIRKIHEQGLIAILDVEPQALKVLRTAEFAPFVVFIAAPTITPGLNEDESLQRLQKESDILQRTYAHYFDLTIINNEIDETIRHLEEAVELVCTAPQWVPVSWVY

For the molecule `Cc1c(NC(=O)c2cc(C(N)=O)nc3cc(F)ccc23)c(C(F)(F)F)nn1Cc1ccc(C(C)(C)C)cc1` [BAY-588], the inhibition is -9.45% in experiment [1]; 3.41% in experiment [4]; 46.1% on Histamine H1 receptor [12]; 40.7% in [13]; -4.06% in experiment [17]. Further, the residual activity in [2] is 100%; in experiment [3], 100%; in experiment [6], 100%; in experiment [7], 100%; in experiment [8] it was 100%; in experiment [9] it was 72%. For the same molecule, the residual activity in [10] was 98%; in experiment [11], 100%; in experiment [14] it was 76%; in experiment [15], 100%; in experiment [16] it was 100%. Moreover, the IC50 in experiment [5] is on record as > 10 µM (not active).
Take `Cc1c(NC(=O)c2cc(C(N)=O)nc3cc(F)ccc23)c(C(F)(F)F)nn1Cc1ccc(C#N)cc1` [BAY-876]: the residual activity was 99% in experiment [2]; 66% in experiment [3]; 71% in [6]; 86% in [7]; 100% in experiment [8]; 77% in experiment [9]. In addition, the residual activity in [10] is 98%; in experiment [11], 66%; in [14], 76%; in [15] it was 80%; in experiment [16] it was 93%. The figures for the inhibition (in the experiment listed under Rattus norvegicus; in experiment [18]) were -1.8% and 2.31%, respectively. Moreover, the Ki on Histamine H1 receptor [19] is 10 µM; at Histamine H2 receptor it was 8.08 µM. Further, the IC50 in [20] is 0.27 µM (not active).
